Here are results for 2 molecules from patent US20170367956A1, “Oral Care Composition” (Colgate-Palmolive Company, priority 2014, published 2017).

One experiment relates to HSP-27. Description: Intracellular HSP27 expression in scratched keratinocytes (ELISA). The experiment is classed as cell-based, human. The following applies: for HSP-27, intracellular: 50 ppm taurine. The protocol:
Human keratinocytes are cultured in DMEM medium supplemented with 10% FBS and 1% of antibiotic at 37° C. under a 5% CO2 atmosphere in petri dishes. Once the cells are 80-90% confluent, a scratch is made horizontally and a scratch is made vertically across the layer of cells. […] […] The cell suspension is then homogenized with metal beads for 5 minutes and then analyzed for HSP27 using ELISA. In both untreated and arginine treated cells, scratching induces a strong increase in intracellular HSP-27 expression at one hour which declines at 4 hours. […] Without being bound by theory, Applicants believe that it is this initial burst of HSP-27 expression at the time of physical injury that contributes to improved wound healing.
Background: In an ELISA, binding on a coated surface is turned into a signal by an enzyme label.

A further experiment relates to HSP 27. Description: HSP 27 assay in scratched (damaged) human gingival tissue, supernatant level. The experiment is classed as cell-based. The conditions noted are these: for Concentration of HSP 27: scratched gingival tissue. Here is the method:
A scratching protocol was used to damage and stress human gingival tissue (MatTek Corporation). Taurine, at two doses, (50 ppm and 200 ppm), was applied to the culture medium containing the tissue. The treated tissue was incubated at 37° C. to promote tissue healing. Cell supernatant was collected at various time points and the level of HSP 27 was measured.

The subject of a further experiment is Human keratinocytes. Description: Migration of human keratinocytes after scratch (gap closure). The experiment is classed as cell-based. The conditions noted are these: for % Gap Closure: 100 ppm taurine in DMEM. Here is the method:
Human keratinocytes are cultured in DMEM medium supplemented with 10% FBS and 1% of antibiotic at 37° C. under a 5% CO2 atmosphere in petri dishes. Once the cells are 80-90% confluent, a scratch is made horizontally and a scratch is made vertically across the layer of cells. 1 ml of a test solution is added to the culture, and the cells are further incubated and monitored by photomicroscopy to evaluate the closure of the gap created by the scratches. The test solutions compared are 100 ppm Taurine in DMEM medium and untreated DMEM medium. The results are shown in Table 4 below, expressed as the average width of the gap as a percentage of the initial width of the gap (at 0 hours).

Regarding `N=C(N)NCCC[C@H](N)C(=O)O` [arginine], the “Intracellular HSP-27 expression versus untreated cells (in words)” value in the experiment with HSP-27 is recorded as “significantly higher expression of HSP-27”.
For the molecule `NCCS(=O)(=O)O` [Taurine, 2-aminoethanesulfonic acid], the “Difference in HSP 27 production between the two concentrations of taurine (in words)” value in the experiment on HSP 27 (50 ppm versus 200 ppm) is reported as “no significant difference”. The “Effect on production of HSP 27 versus untreated, scratched tissue (in words)” value in the experiment with HSP 27 (both doses tested (50 ppm and 200 ppm), 1 hour and 4 hours) is “significantly accelerated the production of HSP 27”. The “Concentration of HSP 27” value in the experiment with HSP 27 (taurine 50 ppm, incubation time 0 hr) is 10.05 ng/mL; in the experiment with HSP 27 (taurine 50 ppm, incubation time 1 hr), 180.33 ng/mL; with HSP 27 (taurine 50 ppm, incubation time 4 hr) it was 269.64 ng/mL; with HSP 27 (taurine 200 ppm, incubation time 0 hr) it was 6.19 ng/mL; with HSP 27 (taurine 200 ppm, incubation time 1 hr), 196.95 ng/mL; with HSP 27 (taurine 200 ppm, incubation time 4 hr), 275.17 ng/mL. Further, the “Speed of gap closure compared to the DMEM control (in words)” value in the experiment with Human keratinocytes (100 ppm taurine) is “significantly faster”. The “% Gap Closure” value in the experiment on Human keratinocytes (24 hr after scratch) is recorded as 23%; in the experiment with Human keratinocytes (48 hr after scratch), 71%; in the experiment with Human keratinocytes (144 hr after scratch) it was 100%. Besides, the “HSP-27, intracellular” value with HSP-27 (time 0 hr) was determined as 23.59 ng/mL; in the experiment with HSP-27 (time 1 hr), 69.65 ng/mL.
